Laboratory results reported in US7311914B2, “MAGE-A4 antigenic peptides and uses thereof” (Ludwig Institute for Cancer Research, priority 2002, dated 2007).

Tested on: CTL F2
Assay: Peptide recognition assay: 51Cr release lysis by CTL F2 of peptide-pulsed autologous EBV-B cells
Assay type: cell-based, human
Conditions: for lysis by CTL F2 of autologous EBV-B cells incubated with peptide (first screening of 16 amino-acid long peptides, FIG. 3A): 1 μg/ml of each peptide, E:T ratio 5:1, chromium release after 4 h; for EC50: CTL F2, E:T 5:1, 4 h chromium release (FIG. 3B), read-out: peptide concentration giving half maximal lysis of autologous EBV-B target cells; for recognition by CTL F2 of peptides of different lengths (peptide titration, FIG. 3B): autologous EBV-B targets, 3-fold peptide dilutions, HPLC purified peptides; for recognition by CTL F2 of peptides of different lengths (peptide titration, FIG. 3B) / recognition by CTL F2 of targets pulsed with peptides modified at the C-terminus (FIG. 3C): E:T 5:1, 4 h; for recognition by CTL F2 of targets pulsed with peptides modified at the C-terminus (FIG. 3C): very high and most probably not physiological concentration of peptide

FPVIFGKASESLKMIF (listed as Homo sapiens) [16-mer MAGE-A4 peptide, amino acids 148-163]
lysis by CTL F2 of autologous EBV-B cells incubated with peptide (first screening of 16 amino-acid long peptides, FIG. 3A): scored positive

SESLKMIF
EC50: 1 nM | recognition by CTL F2 of peptides of different lengths (peptide titration, FIG. 3B): scored positive

SESLKMIFG (listed as Homo sapiens) [MAGE-A4 nonapeptide]
recognition by CTL F2 of peptides of different lengths (peptide titration, FIG. 3B): not recognized

SESLKMIFGI
EC50: 1 nM | recognition by CTL F2 of peptides of different lengths (peptide titration, FIG. 3B): scored positive

SESLKMIFGIDVKEVD (listed as Homo sapiens) [16-mer MAGE-A4 peptide, amino acids 156-171]
lysis by CTL F2 of autologous EBV-B cells incubated with peptide (first screening of 16 amino-acid long peptides, FIG. 3A): scored positive

SESLKMIFI (listed as Homo sapiens) [nonapeptide with C-terminal G replaced by I]
recognition by CTL F2 of targets pulsed with peptides modified at the C-terminus (FIG. 3C): recognized

SESLKMIFL (listed as Homo sapiens) [nonapeptide with C-terminal G replaced by L]
recognition by CTL F2 of targets pulsed with peptides modified at the C-terminus (FIG. 3C): recognized
